Counter-ions that a name gives are not always drawn.
What was measured:
[1] = molecular target: Human norepinephrine transporter (NET) (Homo sapiens, UniProt P23975); experiment: Binding assay to human norepinephrine transporter (NET), [3H]-Nisoxetin; conditions: human NET enriched membranes, 5 nM [3H]-Nisoxetin; read-out: Ki (nM) NET Hum
Experimental: Binding Assay to Human Norepinephrine Transporter (NET).
Human norepinephrine transporter (NET) enriched membranes (5 μg) were incubated with 5 nM of radiolabeled [3H]-Nisoxetin in assay buffer containing 50 mM Tris-HCl, 120 mM NaCl, 5 mM KCl, pH 7.4.
NSB (non specific binding) was measured by adding 1 μM. After 60 min incubation at 4° C., binding reaction was terminated by filtering through Multiscreen GF/C (Millipore) presoaked in 0.5% polyethyleneimine in Vacuum Manifold Station, followed by 3 washes with ice-cold filtration buffer containing 50 mM Tris-HCl, 0.9% NaCl, pH 7.4. Filter plates were dried at 60° C. for 1 hour and 30 μl of scintillation cocktail were added to each well before radioactivity reading.

[2] = molecular target: Human α2δ-1 subunit of Cav2.2 calcium channel (Homo sapiens, UniProt P54289); experiment: Binding assay to human α2δ-1 subunit of Cav2.2 calcium channel, [3H]-Gabapentin; conditions: human α2δ-1 enriched membranes, 15 nM [3H]-Gabapentin; read-out: Ki (nM) alpha2delta Hum
Experimental: Binding Assay to Human α2δ-1 Subunit of Cav2.2 Calcium Channel.
Human α2δ-1 enriched membranes (2.5 μg) were incubated with 15 nM of radiolabeled [3H]-Gabapentin in assay buffer containing Hepes-KOH 10 mM, pH 7.4.
NSB (non specific binding) was measured by adding 10 μM pregabalin. After 60 min incubation at 27° C., binding reaction was terminated by filtering through Multiscreen GF/C (Millipore) presoaked in 0.5% polyethyleneimine in Vacuum Manifold Station, followed by 3 washes with ice-cold filtration buffer containing 50 mM Tris-HCl, pH 7.4.
Filter plates were dried at 60° C. for 1 hour and 30 μl of scintillation cocktail were added to each well before radioactivity reading.
Readings were performed in a Trilux 1450 Microbeta radioactive counter (Perkin Elmer).

Chain of Human α2δ-1 subunit of Cav2.2 calcium channel (P54289 25-1103): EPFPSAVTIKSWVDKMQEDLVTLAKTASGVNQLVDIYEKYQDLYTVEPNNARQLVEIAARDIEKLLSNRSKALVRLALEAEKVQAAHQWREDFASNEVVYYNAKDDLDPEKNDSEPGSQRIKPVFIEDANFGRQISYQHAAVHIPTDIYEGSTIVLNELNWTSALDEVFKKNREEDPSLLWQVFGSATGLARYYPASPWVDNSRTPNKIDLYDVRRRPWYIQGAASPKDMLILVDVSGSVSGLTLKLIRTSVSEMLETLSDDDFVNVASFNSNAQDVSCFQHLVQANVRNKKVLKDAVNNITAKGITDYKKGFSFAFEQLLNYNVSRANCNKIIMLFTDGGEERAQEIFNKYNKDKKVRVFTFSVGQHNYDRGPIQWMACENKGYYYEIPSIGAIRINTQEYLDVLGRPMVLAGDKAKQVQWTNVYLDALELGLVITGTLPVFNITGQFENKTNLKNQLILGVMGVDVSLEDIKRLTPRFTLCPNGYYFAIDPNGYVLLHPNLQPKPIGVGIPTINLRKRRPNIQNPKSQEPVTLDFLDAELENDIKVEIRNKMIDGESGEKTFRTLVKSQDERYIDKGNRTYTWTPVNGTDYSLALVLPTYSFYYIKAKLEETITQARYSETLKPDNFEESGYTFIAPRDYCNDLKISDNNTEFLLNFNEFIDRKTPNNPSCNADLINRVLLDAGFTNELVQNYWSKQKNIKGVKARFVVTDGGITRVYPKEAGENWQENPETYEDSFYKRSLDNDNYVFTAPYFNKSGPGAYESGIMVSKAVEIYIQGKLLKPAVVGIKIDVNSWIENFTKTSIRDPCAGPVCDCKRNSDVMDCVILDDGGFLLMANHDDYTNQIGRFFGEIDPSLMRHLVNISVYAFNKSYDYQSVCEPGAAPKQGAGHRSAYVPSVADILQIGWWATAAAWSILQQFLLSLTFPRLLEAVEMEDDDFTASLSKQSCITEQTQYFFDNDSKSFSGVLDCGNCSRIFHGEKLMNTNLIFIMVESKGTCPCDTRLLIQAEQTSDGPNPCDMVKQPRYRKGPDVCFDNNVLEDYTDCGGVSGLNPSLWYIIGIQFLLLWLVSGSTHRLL
Chain of Human norepinephrine transporter (NET) (P23975 whole entry): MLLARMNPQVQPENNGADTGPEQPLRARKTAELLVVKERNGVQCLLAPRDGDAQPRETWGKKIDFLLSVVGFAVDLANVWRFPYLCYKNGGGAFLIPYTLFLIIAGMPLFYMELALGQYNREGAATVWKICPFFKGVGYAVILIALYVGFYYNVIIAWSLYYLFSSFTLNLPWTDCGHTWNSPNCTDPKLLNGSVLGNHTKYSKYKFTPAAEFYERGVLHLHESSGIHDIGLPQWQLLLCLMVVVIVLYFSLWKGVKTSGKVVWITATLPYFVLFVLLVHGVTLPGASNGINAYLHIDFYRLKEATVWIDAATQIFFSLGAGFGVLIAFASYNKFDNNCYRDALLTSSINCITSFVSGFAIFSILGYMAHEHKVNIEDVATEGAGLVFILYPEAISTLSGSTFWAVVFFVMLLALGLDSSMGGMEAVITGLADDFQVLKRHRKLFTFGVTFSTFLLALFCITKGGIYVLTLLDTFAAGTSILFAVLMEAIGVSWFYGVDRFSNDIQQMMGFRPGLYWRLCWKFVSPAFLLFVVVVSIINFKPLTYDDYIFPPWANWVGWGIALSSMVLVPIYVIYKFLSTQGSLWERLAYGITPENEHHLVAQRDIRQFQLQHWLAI

Row | Compound | Ki [1] | Ki [2]
1 | CN(C)CCC(c1cccs1)N1CCc2ncccc21 (centres unmarked) [Example 15, 3-(2,3-Dihydro-1H-pyrrolo[3,2-b]pyridin-1-yl)-N,N-dimethyl-3-(thiophen-2-yl)propan-1-amine] | > 1000 nM | ≥ 3000 nM
2 | CNCC[C@@H](c1ccsc1)N1CCc2nc(C(C)C)ccc21 [Example 47, (S)-3-(5-Isopropyl-2,3-dihydro-1H-pyrrolo[3,2-b]pyridin-1-yl)-N-methyl-3-(thiophen-3-yl)propan-1-amine] | > 1000 nM | 500 to 3000 nM
3 | CNCC[C@H](c1cc(C)sc1C)N1CCc2ncccc21 [Example 42, (R)-3-(2,3-Dihydro-1H-pyrrolo[3,2-b]pyridin-1-yl)-3-(2,5-dimethylthiophen-3-yl)-N-methylpropan-1-amine] | > 1000 nM | ≥ 3000 nM
4 | CCNCC[C@H](c1ccsc1)N1CCc2ncc(F)cc21 [Example 91, (R)-N-ethyl-3-(6-fluoro-2,3-dihydro-1H-pyrrolo[3,2-b]pyridin-1-yl)-3-(thiophen-3-yl)propan-1-amine] | > 1000 nM | 500 to 3000 nM
5 | CNCC[C@@H](c1ccsc1)N1CC(C)(C)c2ncc(C)cc21 [Example 61, (S)-N-methyl-3-(thiophen-3-yl)-3-(3,3,6-trimethyl-2,3-dihydro-1H-pyrrolo[3,2-b]pyridin-1-yl)propan-1-amine] | > 1000 nM | 500 to 3000 nM
6 | CNCCC(c1cccs1)N1CCc2ccc(C#N)cc21 (centres unmarked) [Example 94, 1-(3-(Methylamino)-1-(thiophen-2-yl)propyl)indoline-6-carbonitrile] | > 1000 nM | 100 to 500 nM
7 | CNCC[C@@H](c1cccs1)N1CCc2ncc(F)cc21 [Example 27, (S)-3-(6-Fluoro-2,3-dihydro-1H-pyrrolo[3,2-b]pyridin-1-yl)-N-methyl-3-(thiophen-2-yl)propan-1-amine] | > 1000 nM | 100 to 500 nM
8 | CNCC[C@H](c1ccsc1)N1CCc2nc(C(C)C)ccc21 [Example 46, (R)-3-(5-Isopropyl-2,3-dihydro-1H-pyrrolo[3,2-b]pyridin-1-yl)-N-methyl-3-(thiophen-3-yl)propan-1-amine] | > 1000 nM | 500 to 3000 nM
9 | CNCC[C@H](c1ccsc1)N1CC(C)(C)c2ncccc21 [Example 24, (R)-3-(3,3-Dimethyl-2,3-dihydro-1H-pyrrolo[3,2-b]pyridin-1-yl)-N-methyl-3-(thiophen-3-yl)propan-1-amine] | > 1000 nM | 100 to 500 nM
10 | CNCC[C@H](c1cccs1)N1CCc2ncc(F)cc21 [Example 26, (R)-3-(6-Fluoro-2,3-dihydro-1H-pyrrolo[3,2-b]pyridin-1-yl)-N-methyl-3-(thiophen-2-yl)propan-1-amine] | > 1000 nM | 100 to 500 nM
11 | CNCCC(c1cccs1)N1CCc2ccncc21 (centres unmarked) [Example 2, 3-(2,3-Dihydro-1H-pyrrolo[2,3-c]pyridin-1-yl)-N-methyl-3-(thiophen-2-yl)propan-1-amine] | > 1000 nM | 500 to 3000 nM
12 | CNCC[C@H](c1ccsc1)N1CCc2ncccc21 [Example 22, (R)-3-(2,3-Dihydro-1H-pyrrolo[3,2-b]pyridin-1-yl)-N-methyl-3-(thiophen-3-yl)propan-1-amine] | > 1000 nM | 500 to 3000 nM
13 | CNCC[C@@H](c1cccs1)N1c2ccccc2C[C@@H]1C (racemic) [Example 119, (S/R)—N-methyl-3-((S/R)-2-methylindolin-1-yl)-3-(thiophen-2-yl)propan-1-amine] | > 1000 nM | ≥ 3000 nM
14 | CNCC[C@@H](c1cccs1)N1CCc2nc(C(C)C)ccc21 [Example 49, (S)-3-(5-Isopropyl-2,3-dihydro-1H-pyrrolo[3,2-b]pyridin-1-yl)-N-methyl-3-(thiophen-2-yl)propan-1-amine] | > 1000 nM | ≥ 3000 nM
15 | CNCC[C@H](c1cccs1)N1CCc2ncc(OC)cc21 [Example 30, (R)-3-(6-Methoxy-2,3-dihydro-1H-pyrrolo[3,2-b]pyridin-1-yl)-N-methyl-3-(thiophen-2-yl)propan-1-amine] | > 1000 nM | 100 to 500 nM
16 | CNCC[C@H](c1cccs1)N1CCc2ncc(C(C)C)cc21 [Example 39, (R)-3-(6-Isopropyl-2,3-dihydro-1H-pyrrolo[3,2-b]pyridin-1-yl)-N-methyl-3-(thiophen-2-yl)propan-1-amine] | > 1000 nM | 100 to 500 nM

Next, values leading:

Row | Ki [1] | Ki [2] | Compound
17 | > 1000 nM | 100 to 500 nM | CNCCC(c1ccsc1)N1CC(C)(C)c2nc(C#N)ccc21 (centres unmarked) [Example 104, 3,3-Dimethyl-1-(3-(methylamino)-1-(thiophen-3-yl)propyl)-2,3-dihydro-1H-pyrrolo[3,2-b]pyridine-5-carbonitrile Hydrochloride]
18 | > 1000 nM | 500 to 3000 nM | CCC1(CC)CN(C(CCNC)c2ccsc2)c2cccnc21 (racemic) [Example 86, 3-(3,3-Diethyl-2,3-dihydro-1H-pyrrolo[3,2-b]pyridin-1-yl)-N-methyl-3-(thiophen-3-yl)propan-1-amine]
19 | > 1000 nM | ≥ 3000 nM | CNCC[C@@H](c1cc(C)sc1C)N1CCc2ncccc21 [Example 43, (S)-3-(2,3-Dihydro-1H-pyrrolo[3,2-b]pyridin-1-yl)-3-(2,5-dimethylthiophen-3-yl)-N-methylpropan-1-amine]
20 | > 1000 nM | 100 to 500 nM | CNCC[C@@H](c1cccs1)N1CCc2c(C#N)cccc21 [Example 112, (S)-1-(3-(methylamino)-1-(thiophen-2-yl)propyl)indoline-4-carbonitrile]
21 | > 1000 nM | < 100 nM | CNCCC(c1ccsc1)N1CC(C)(C)c2ncc(F)cc21 (centres unmarked) [Example 65, 3-(6-Fluoro-3,3-dimethyl-2,3-dihydro-1H-pyrrolo[3,2-b]pyridin-1-yl)-N-methyl-3-(thiophen-3-yl)propan-1-amine]
22 | 100 to 500 nM | 100 to 500 nM | CNCCC(c1ccsc1)N1CCc2ncccc21 (centres unmarked) [Example 10, 3-(2,3-Dihydro-1H-pyrrolo[3,2-b]pyridin-1-yl)-N-methyl-3-(thiophen-3-yl)propan-1-amine]
23 | > 1000 nM | 500 to 3000 nM | CNCC[C@H](c1cc(C)cs1)N1CCc2ncccc21 [Example 56, (R)-3-(2,3-Dihydro-1H-pyrrolo[3,2-b]pyridin-1-yl)-N-methyl-3-(4-methylthiophen-2-yl)propan-1-amine]
24 | 500 to 1000 nM | 100 to 500 nM | CNCC[C@@H](c1ccsc1)N1CCc2ncc(F)cc21 [Example 29, (S)-3-(6-Fluoro-2,3-dihydro-1H-pyrrolo[3,2-b]pyridin-1-yl)-N-methyl-3-(thiophen-3-yl)propan-1-amine]
25 | 500 to 1000 nM | 500 to 3000 nM | CNCCC(c1cccs1)N1CCc2cc(C#N)ccc21 (centres unmarked) [Example 96, 1-(3-(Methylamino)-1-(thiophen-2-yl)propyl)indoline-5-carbonitrile]
26 | 100 to 500 nM | ≥ 3000 nM | CNCCC(c1cccs1)N1CCc2cc(F)ccc21 (centres unmarked) [Example 72, 3-(5-Fluoroindolin-1-yl)-N-methyl-3-(thiophen-2-yl)propan-1-amine]
27 | 100 to 500 nM | 500 to 3000 nM | CNCC[C@@H](c1ccsc1)N1CC(C)(C)c2ncccc21 [Example 25, (S)-3-(3,3-Dimethyl-2,3-dihydro-1H-pyrrolo[3,2-b]pyridin-1-yl)-N-methyl-3-(thiophen-3-yl)propan-1-amine]
28 | 100 to 500 nM | 100 to 500 nM | CNCC[C@@H](c1ccsc1)N1CCc2ncccc21 [Example 23, (S)-3-(2,3-Dihydro-1H-pyrrolo[3,2-b]pyridin-1-yl)-N-methyl-3-(thiophen-3-yl)propan-1-amine]
29 | 100 to 500 nM | 500 to 3000 nM | CNCC[C@@H](c1cccs1)N1CC(C)(C)c2ncccc21 [Example 21, (S)-3-(3,3-dimethyl-2,3-dihydro-1H-pyrrolo[3,2-b]pyridin-1-yl)-N-methyl-3-(thiophen-2-yl)propan-1-amine]
30 | 100 to 500 nM | ≥ 3000 nM | CNCC[C@@H](c1cscc1C)N1CCc2ncccc21 [Example 50, (S)-3-(2,3-Dihydro-1H-pyrrolo[3,2-b]pyridin-1-yl)-N-methyl-3-(4-methylthiophen-3-yl)propan-1-amine]
31 | 100 to 500 nM | ≥ 3000 nM | CNCC[C@H](c1cccc(F)c1)N1CCc2ncccc21 [Example 83, (R)-3-(2,3-Dihydro-1H-pyrrolo[3,2-b]pyridin-1-yl)-3-(3-fluorophenyl)-N-methylpropan-1-amine]
32 | 100 to 500 nM | ≥ 3000 nM | CNCC[C@H](c1sccc1Cl)N1CCc2ncccc21 [Example 36, (R)-3-(3-Chlorothiophen-2-yl)-3-(2,3-dihydro-1H-pyrrolo[3,2-b]pyridin-1-yl)-N-methylpropan-1-amine]
33 | 100 to 500 nM | ≥ 3000 nM | CNCC[C@@H](c1sccc1Cl)N1CCc2ncccc21 [Example 37, (S)-3-(3-Chlorothiophen-2-yl)-3-(2,3-dihydro-1H-pyrrolo[3,2-b]pyridin-1-yl)-N-methylpropan-1-amine]
34 | < 100 nM | 500 to 3000 nM | CNCCC(c1cccs1)N1CC(C)(C)c2ccccc21 (centres unmarked) [Example 93, 3-(3,3-Dimethylindolin-1-yl)-N-methyl-3-(thiophen-2-yl)propan-1-amine]

Source: US20200207759A1, “NEW PROPANAMINE DERIVATIVES FOR TREATING PAIN AND PAIN RELATED CONDITIONS” (ESTEVE PHARMACEUTICALS, S.A., priority 2017, published 2020)
